Measurements published in ChEMBL document CHEMBL3431459, “Roche carnitine palmitoyltransferase modulator screening data (supplementary data associated with the publication CHEMBL2216752)”.
≈ marks a conversion by molar mass, not a printed value.

Experiments:
[1] = molecular target: T1, Carnitine O-palmitoyltransferase 1, muscle isoform (Homo sapiens, UniProt Q92523); experiment: SUPPLEMENTARY: Inhibition of Carnitine palmitoyltransferase 1, muscle isoform; design: species or system Muscle tissue
T1 sequence (Q92523 whole entry): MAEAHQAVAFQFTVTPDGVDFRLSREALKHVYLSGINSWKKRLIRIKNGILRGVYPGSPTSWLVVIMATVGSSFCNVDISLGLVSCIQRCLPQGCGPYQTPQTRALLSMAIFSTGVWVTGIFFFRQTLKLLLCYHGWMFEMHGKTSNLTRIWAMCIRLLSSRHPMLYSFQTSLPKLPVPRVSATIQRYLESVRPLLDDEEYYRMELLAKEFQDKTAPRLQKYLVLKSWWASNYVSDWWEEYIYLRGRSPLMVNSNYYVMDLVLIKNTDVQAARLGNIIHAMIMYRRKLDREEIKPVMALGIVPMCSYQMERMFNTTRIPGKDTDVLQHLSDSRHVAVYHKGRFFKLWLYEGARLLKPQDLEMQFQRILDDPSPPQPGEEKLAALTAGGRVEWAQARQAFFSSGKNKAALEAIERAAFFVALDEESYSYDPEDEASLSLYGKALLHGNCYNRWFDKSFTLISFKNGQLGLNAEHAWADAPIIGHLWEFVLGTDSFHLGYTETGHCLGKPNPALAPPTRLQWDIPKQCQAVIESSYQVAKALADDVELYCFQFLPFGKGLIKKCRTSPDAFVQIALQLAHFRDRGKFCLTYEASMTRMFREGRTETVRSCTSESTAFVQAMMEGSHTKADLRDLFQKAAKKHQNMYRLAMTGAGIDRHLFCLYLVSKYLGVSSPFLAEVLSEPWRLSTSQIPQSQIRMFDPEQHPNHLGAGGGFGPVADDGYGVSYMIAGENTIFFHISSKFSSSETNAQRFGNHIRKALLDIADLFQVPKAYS

[2] = molecular target: T2, Carnitine O-palmitoyltransferase 2, mitochondrial (Homo sapiens, UniProt P23786); experiment: (§1) SUPPLEMENTARY: Inhibition of Carnitine palmitoyltransferase 2
T2 sequence (P23786 whole entry): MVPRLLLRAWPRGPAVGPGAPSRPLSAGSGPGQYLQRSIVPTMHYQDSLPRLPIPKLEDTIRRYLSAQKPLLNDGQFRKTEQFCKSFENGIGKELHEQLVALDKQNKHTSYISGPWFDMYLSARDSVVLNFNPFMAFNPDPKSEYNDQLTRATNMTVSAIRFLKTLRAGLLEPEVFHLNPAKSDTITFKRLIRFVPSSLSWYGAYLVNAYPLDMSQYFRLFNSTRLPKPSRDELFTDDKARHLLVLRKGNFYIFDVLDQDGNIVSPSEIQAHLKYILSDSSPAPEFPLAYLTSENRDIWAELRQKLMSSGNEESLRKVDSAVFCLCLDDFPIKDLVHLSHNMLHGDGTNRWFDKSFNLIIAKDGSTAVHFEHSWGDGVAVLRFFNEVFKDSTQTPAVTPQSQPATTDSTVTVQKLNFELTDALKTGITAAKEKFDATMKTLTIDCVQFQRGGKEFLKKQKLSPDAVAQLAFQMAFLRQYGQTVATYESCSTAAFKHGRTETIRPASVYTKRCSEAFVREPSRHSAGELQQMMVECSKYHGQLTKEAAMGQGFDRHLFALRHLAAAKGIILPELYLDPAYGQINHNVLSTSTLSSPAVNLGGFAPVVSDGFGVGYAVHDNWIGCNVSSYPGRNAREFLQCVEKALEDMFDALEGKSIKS

[3] = molecular target: T3, Carnitine O-palmitoyltransferase 2, mitochondrial (Rattus norvegicus, UniProt P18886); experiment: as §1
T3 sequence (P18886 whole entry): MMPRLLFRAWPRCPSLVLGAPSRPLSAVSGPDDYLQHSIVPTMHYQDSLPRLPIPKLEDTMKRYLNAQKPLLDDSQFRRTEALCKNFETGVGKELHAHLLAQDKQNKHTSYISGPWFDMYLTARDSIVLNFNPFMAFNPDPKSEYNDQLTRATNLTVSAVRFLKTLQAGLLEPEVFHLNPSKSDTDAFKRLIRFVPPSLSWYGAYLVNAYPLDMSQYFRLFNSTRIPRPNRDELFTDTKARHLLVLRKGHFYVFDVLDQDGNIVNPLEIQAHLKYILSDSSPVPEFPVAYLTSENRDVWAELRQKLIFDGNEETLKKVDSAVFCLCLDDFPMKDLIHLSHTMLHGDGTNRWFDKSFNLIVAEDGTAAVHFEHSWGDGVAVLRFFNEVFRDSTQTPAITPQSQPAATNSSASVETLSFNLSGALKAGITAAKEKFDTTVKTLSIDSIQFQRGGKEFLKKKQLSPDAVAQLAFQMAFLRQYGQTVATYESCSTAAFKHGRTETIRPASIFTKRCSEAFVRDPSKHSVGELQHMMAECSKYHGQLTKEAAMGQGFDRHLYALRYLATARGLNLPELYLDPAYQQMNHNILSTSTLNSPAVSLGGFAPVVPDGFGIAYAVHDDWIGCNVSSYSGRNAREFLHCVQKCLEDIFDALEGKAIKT

[4] = molecular target: T4, Carnitine O-palmitoyltransferase 1, liver isoform (Homo sapiens, UniProt P50416); experiment: (§2) SUPPLEMENTARY: Inhibition of Carnitine palmitoyltransferase 1, liver isoform
T4 sequence (P50416 whole entry): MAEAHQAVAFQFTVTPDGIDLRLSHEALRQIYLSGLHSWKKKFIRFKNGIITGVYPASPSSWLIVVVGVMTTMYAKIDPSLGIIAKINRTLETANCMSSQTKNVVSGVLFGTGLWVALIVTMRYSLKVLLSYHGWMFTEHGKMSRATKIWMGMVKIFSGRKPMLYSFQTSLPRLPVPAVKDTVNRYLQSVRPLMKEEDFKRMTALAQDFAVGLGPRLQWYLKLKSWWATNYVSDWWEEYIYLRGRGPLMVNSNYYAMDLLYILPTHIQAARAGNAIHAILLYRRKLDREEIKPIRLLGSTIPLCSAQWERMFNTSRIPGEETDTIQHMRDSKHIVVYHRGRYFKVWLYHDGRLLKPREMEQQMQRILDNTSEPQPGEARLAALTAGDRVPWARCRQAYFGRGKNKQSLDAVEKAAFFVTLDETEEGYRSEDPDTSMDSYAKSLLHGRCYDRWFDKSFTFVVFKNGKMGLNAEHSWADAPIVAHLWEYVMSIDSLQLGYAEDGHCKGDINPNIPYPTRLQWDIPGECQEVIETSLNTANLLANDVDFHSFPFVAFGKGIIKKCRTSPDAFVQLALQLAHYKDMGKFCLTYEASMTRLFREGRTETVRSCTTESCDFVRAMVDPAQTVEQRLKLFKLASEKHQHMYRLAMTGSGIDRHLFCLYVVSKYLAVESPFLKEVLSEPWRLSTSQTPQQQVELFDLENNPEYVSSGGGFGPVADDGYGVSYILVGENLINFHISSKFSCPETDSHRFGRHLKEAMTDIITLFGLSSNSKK

[5] = molecular target: T5, Carnitine O-palmitoyltransferase 1, liver isoform (Rattus norvegicus, UniProt P32198); experiment: as §2
T5 sequence (P32198 whole entry): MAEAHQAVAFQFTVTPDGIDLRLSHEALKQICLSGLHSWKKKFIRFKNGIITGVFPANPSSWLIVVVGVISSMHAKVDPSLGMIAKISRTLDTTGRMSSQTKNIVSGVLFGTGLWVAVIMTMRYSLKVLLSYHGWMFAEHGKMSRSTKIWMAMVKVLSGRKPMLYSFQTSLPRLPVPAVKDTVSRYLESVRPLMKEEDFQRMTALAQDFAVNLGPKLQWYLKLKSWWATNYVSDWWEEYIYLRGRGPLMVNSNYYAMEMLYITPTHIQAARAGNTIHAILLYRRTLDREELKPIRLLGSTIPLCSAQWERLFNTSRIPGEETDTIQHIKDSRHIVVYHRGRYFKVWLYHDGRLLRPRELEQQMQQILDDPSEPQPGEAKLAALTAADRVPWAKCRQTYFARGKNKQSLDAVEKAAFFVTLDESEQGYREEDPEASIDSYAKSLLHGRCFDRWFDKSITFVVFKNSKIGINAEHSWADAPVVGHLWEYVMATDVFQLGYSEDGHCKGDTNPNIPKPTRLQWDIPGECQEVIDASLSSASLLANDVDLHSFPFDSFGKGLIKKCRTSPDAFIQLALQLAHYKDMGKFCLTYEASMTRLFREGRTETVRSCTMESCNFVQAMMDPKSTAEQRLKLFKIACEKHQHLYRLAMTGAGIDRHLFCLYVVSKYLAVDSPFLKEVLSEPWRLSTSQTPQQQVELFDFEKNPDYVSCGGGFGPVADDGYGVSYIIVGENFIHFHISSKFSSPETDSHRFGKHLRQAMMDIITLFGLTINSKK

[6] = SUPPLEMENTARY: Lyophilisation Solubility Assay (LYSA); assay type: physicochemical; conditions: read-out: Kinetic_solubility
[7] = SUPPLEMENTARY: Lipophilicity (log D) Determination by high-throughput shake-flask; assay type: physicochemical; conditions: octanol/water
[8] = SUPPLEMENTARY: PAMPA permeability assay; assay type: physicochemical; conditions: read-out: Permeability

SMILES | IC50 [1] [nM] | IC50 [2] [nM] | IC50 [3] [nM] | IC50 [4] [nM] | IC50 [5] [nM] | solubility kinetic [6] [µg/mL] | logD [7] | Papp [8] [×10⁻⁶ cm/s]
CC1(C)NC(=O)N(c2ccc(Cl)c(-c3nc([C@H]4CCCCN4C(=O)COc4ccccc4)no3)c2)C1=O | 22700 | 6090 | 21700 | 91.2 | 247 | < 1 | 3.29 | 0.49
O=C1Cc2cc(-c3noc([C@H]4CCCCN4C(=O)COc4ccccc4)n3)ccc2N1 | 27600 | 42900 | 53500 | 13.2 | 70.8 | 14.5 (≈ 34.7 µM) | 2.93 | 2.61
Cc1cc(-c2noc([C@H]3CCCCN3C(=O)COc3ccccc3)n2)no1 | > 100000 | > 100000 | > 100000 | 137 | 611 | 141 (≈ 383 µM) | 2.34 | 3.94
COc1ccc(Cl)cc1CN1C(=O)OCc2ccc(C(=O)Nc3nc(CC(=O)O)cs3)cc21 | 21900 | > 100000 | > 100000 | 132 | 203 | 50 (≈ 102 µM) | 0.06 | 1.7
Cc1cc(-c2nc([C@H]3CCCCN3C(=O)COc3ccccc3)no2)[nH]n1 | 62700 | > 100000 | > 100000 | 188 | 146 | 52 (≈ 142 µM) | 2.57 | 6.09
COc1ccc(Cl)cc1CN1C(=O)CS(=O)(=O)c2ccc(C(=O)Nc3nc(CC(=O)O)cs3)cc21 | 9620 | > 100000 | > 100000 | 219 | 89.8 | 417 (≈ 778 µM) | -0.29 | 0.85
COc1ccc(Cl)cc1S(=O)(=O)N1CCOc2ccc(C(=O)Nc3ccn(CC(=O)O)n3)cc21 | 9890 | > 100000 | > 100000 | 213 | 171 | > 675 | 1.27 | 0.09
O=C(COc1ccccc1)N1CCCC[C@@H]1c1noc(-c2ccc3[nH]c(=O)c(=O)[nH]c3c2)n1 | > 100000 | 17000 | > 100000 | 140 | 502 | 50 (≈ 112 µM) | 2.25 | 0.47
O=C1COc2cc(C#C[C@H]3CCCCN3C(=O)COc3ccccc3)ccc2N1 | > 100000 | > 100000 | > 100000 | 154 | 205 | 2 (≈ 5.12 µM) | 3.51 | 1.09
O=C([C@H]1CCCCN1C(=O)COc1ccccc1)N1Cc2ccc(Cl)cc2C1 | > 100000 | 616 | 819 | 336 | 567 | 15 (≈ 37.6 µM) | 3.26 | 5.03
O=C(O)c1ccc(NC(=O)c2ccc(Cl)c(NS(=O)(=O)c3cc(Cl)cc(Cl)c3)c2)cc1 | 53100 | 25700 | > 100000 | 86.1 | 139 | 13 (≈ 26 µM) | 0.49 | 2.25
O=C1CCCN1c1cccc(-c2noc([C@H]3CCCCN3C(=O)COc3ccccc3)n2)c1 | > 100000 | > 100000 | > 100000 | 88.8 | 62.1 | < 1 | 3.09 | 3.86
N#Cc1ccc(-c2nc([C@H]3CCCCN3C(=O)COc3ccccc3)no2)cc1 | > 100000 | 22000 | > 100000 | 80.7 | 143 | 6 (≈ 15.4 µM) | 3.16 | 5.52
CC(=O)Nc1cc(F)cc(-c2n[nH]c([C@H]3CCCCN3C(=O)COc3ccccc3)n2)c1 | > 100000 | > 100000 | > 100000 | 26.4 | 65.6 | 37 (≈ 84.6 µM) | 3.22 | 1.69
O=C(COc1ccncc1)N1CCCC[C@@H]1c1nnc(-c2cccc(C(F)(F)F)c2)[nH]1 | 10400 | 43500 | 41200 | 165 | 194 | 78 (≈ 181 µM) | 3.29 | 1.75
